For assay [1], the system named is bio-BCL-2 (BCL-2 IM) (DNA, i motif) CAGCCCCGCTCCCGCCCCCTTCCTCCCGCGCCCGCCCCT
The assay is described as follows: SPR. To be noted: K+ 100 mM; 20 mM MES, pH 5.5, 25 °C.

For a further assay, the target named is ILPR promoter i-motif. The assay is described as follows: SPR binding to ILPR promoter i-motif. To be noted: MES buffer pH 5.5. (In general: Surface plasmon resonance follows binding to a sensor surface in real time, without labels.)
Another assay concerns BCL-2 promoter i-motif. The assay is described as follows: TO displacement assay, BCL-2 i-motif. The format is binding. To be noted: BPES buffer pH 5.5. As for the experimental part:
Figure S4. TO displacement and UV titration experiments were performed to examine the effects of B14 and A22 on BCL-2 promoter i-motif. (A-B) TO displacement was performed on BCL-2 promoter i-motif annealed in 1XBPES buffer at pH 5.5 with increasing amount of B14 and A22. (C) The above relative TO displacement ratio were statistically analyzed.
DNA oligonucleotides were diluted to 1 μM with 1 × PBES buffer at pH 5.5, annealed at 95 °C for 10 min, cooled to room temperature, and stored at 4 °C for future use. TO dye (1 μM) was added to the DNA solution followed with incubation for 1 h. The spectra of 100 μL mixture with addition of different equivalent compounds at 25 °C were recorded based on fluorescence emission (λex = 480 nm).
TO displacement ratio (%) = (F0 − FC) / (F0 − FB) * 100.
F0 and FC were the fluorescence intensity of TO at 536 nm with DNA before and after adding compounds, respectively. FB was the fluorescence intensity of TO at 536 nm with buffer only.

In assay [2] the test system is BCL-2 gene transcription in SH-SY5Y cells. The assay is described as follows: Real-time RT-PCR in 25 μM Aβ1-42 cell model, BCL-2. The class given is cell-based, human. As for the experimental part: SH-SY5Y cells were treated with or without B14, and total RNA was subsequently isolated and purified. Reverse transcription was performed using a cDNA synthesis kit. The relative transcription levels of the genes were evaluated through quantitative real-time PCR using the SYBR Green-based method, as described in the Supplementary Date. Details regarding the primer sequences and the raw data can be found in Table S7 and Table S8.
^a -∆∆Ct = -[(Ct value of genes in treated sample - Ct value of genes in control) - (Ct value of β-actin in treated sample - Ct value of β-actin in control)]. ^b F: The relative expression fold.
Experiment 2: The Ct values of BCL-2 and Bax in 25 μM Aβ1-42 model with different concentration of B14.
Total RNA was extracted from cells and mice liver tissue using RNAiso Plus (Takara, 9109, Japan). Following sample homogenization, chloroform was added, and the solution was allowed to have phase separation into an upper aqueous layer (containing RNA), an interphase, and a lower organic layer (containing DNA and proteins). RNA was precipitated from the aqueous phase using isopropanol, while DNA was precipitated from the aqueous-organic interphase using ethanol. Complementary DNA (cDNA) was synthesized using the One-Step RT-PCR Kit (Takara, Cat#639503, Japan).
Quantitative real-time polymerase chain reaction (qRT-PCR) was performed using the 2× RealStar SYBR Mixture (GenStar, Cat# A301-10, Guangzhou, China) on a LightCycler 480 II real-time PCR system (Roche, USA). Data were analyzed using the 2^−ΔΔCt method. Actin served as the internal control, and relative mRNA levels were normalized accordingly.
A general note: Real-time PCR tracks product formation cycle by cycle.

The next assay relates to SH-SY5Y cells. The assay is described as follows: JC-1 / Mito-tracker / H2DCFDA / Ca2+ staining in Aβ1-42 induced cell model. To be noted: 25 μM Aβ1-42 induced model. The class given is cell-based. As for the experimental part: SH-SY5Y cells were plated on 96 well plates. After 24h treatment with or without B14 in 25 μM Aβ1-42 induced cell model, the cells were washed for three times with cold PBS. Then cells were incubated with Hoechst 33342 solution (Sigma, 10 μg/mL) and H2DCFDA probe (10 μM, sigma), as well as Mito-tracker deep red (100 nM, sigma) for 10 min at 37 °C in the dark. All the samples were photographed by using FV3000 (Olympus). SH-SY5Y cells were plated on 6 well plates. After 24h treatment with B14 in 25 μM Aβ1-42 induced cell model, cells were incubated with JC-1 (5 μg/mL, sigma) for 30 min at 37 °C in the dark. Fluorescence detection was carried out by using EVOS FL Auto.

For assay [3], the system named is BAX, Cleaved Caspase 3, Cleaved Caspase 9, Cyto-C, Apaf-1 in SH-SY5Y cells. The assay is described as follows: Western blot of apoptosis related proteins in Aβ1-42 induced cell model. The class given is cell-based. To be noted: 25 μM Aβ1-42 induced model. As for the experimental part: Protein samples (25–40 μg) were separated using 10 % SDS-PAGE and subsequently transferred onto PVDF membranes (0.22 μm, Servicebio, Guangzhou, China) via electro transfer. Following blocking with TBST solution (Servicebio, Guangzhou, China) containing 5 % BSA (Solarbio, Beijing, China) for approximately 60 min at room temperature, the membrane was exposed to various primary antibodies overnight at 4 °C on a rotating shaker. Then, the membranes were incubated with HRP-conjugated secondary antibody (Affinity, Changzhou, China) for 2 h. Protein bands were then detected using an ECL kit. The signal intensity of each target protein was quantified using Image J 1.8.0 software (Bio-Rad Laboratories, California, USA).
Primary antibodies for Western blot analysis include BCL-2 (affinity biosciences OH, Cat# AF6139, USA), BAX (affinity biosciences OH, Cat# AF0120, USA), VEGF (affinity biosciences OH, Cat# AF5131, USA), C-MYC (affinity biosciences OH, Cat# AF0358, USA), Caspase9 (affinity biosciences OH, Cat# AF6348, USA), cleaved-Caspase9 (affinity biosciences OH, Cat# AF5240, USA), Caspase3 (affinity biosciences OH, Cat# AF6311, USA), cleaved-Caspase3 (affinity biosciences OH, Cat# AF7022, USA), and Cyto-C (affinity biosciences OH, Cat# AF6139, USA).

The test system of a further assay is APP/PS1 transgenic mice. The assay is described as follows: TUNEL staining of brain sections. The format is in vivo. To be noted: B14 10, 20, 40 mg/kg i.p. every other day. An excerpt: Five months old male APP/PS1 mice, weighing 25–33 g, were purchased from Guangdong Medical Laboratory Animal Center and housed in the Laboratory Animal Center of Sun Yat-sen University (Guangzhou, China) for experimentation. All procedures were approved by the Animal Care and Use Committee of Sun Yat-sen University and complied with legal requirements and national guidelines for the care and maintenance of laboratory animals (Approval No. SYSU-IACUC-2024-002032). The mice were housed in a specific pathogen-free environment with a controlled temperature of 22 ± 1 °C and a 12-h dark/light cycle. The mice were fed with a standard diet, and 30 mice were randomly divided into 6 groups (N = 5). Compound B14 was dissolved in saline and administered at doses of 10, 20, or 40 mg/kg. APP/PS1 male mice were grown until 6 months of age, and then injected intraperitoneally with compound B14 every other day for 60 days. Behavioral experiments were then conducted, and tissue specimens were collected for biochemical analysis.

“And” between values parts separate entries of the source, which are not always exact repeats. Identical values can stand only once.

In the case of `O=C(CCN1CCOCC1)Nc1ccc2c(c1)c(=O)c1cc(NC(=O)CCN3CCOCC3)ccc1n2-c1ccc2occc2c1` [Compound B14], the KD (in general, the constant that tells how readily two partners part at equilibrium) in assay [1] worked out at 2.13 µM. At ILPR promoter i-motif, the Kd (in general, the equilibrium constant for the complex coming apart) is > 50 µM. In addition, in the assay with BCL-2 promoter i-motif, the “Relative TO displacement ratio” value is 65% and 65.7%. Also, in assay [2] (25 μM Aβ1-42 + 6.25 μM B14), the “-∆∆Ct, BCL-2” value was -0.05 and the “F = 2^-∆∆Ct (relative expression fold), BCL-2” value is given as 1.04. In assay [2] (25 μM Aβ1-42 + 12.5 μM B14), the “-∆∆Ct, BCL-2” value is listed as -0.48 and the “F = 2^-∆∆Ct (relative expression fold), BCL-2” value stood at 1.40. Also, in assay [2] (25 μM Aβ1-42 + 25 μM B14), the “-∆∆Ct, BCL-2” value is listed as -0.82 and the “F = 2^-∆∆Ct (relative expression fold), BCL-2” value is 1.76. Besides, in the assay with SH-SY5Y cells, the “intracellular Ca^2+ (Fluo-5AM)” value was “could modulate aberrantly metabolized Ca^2+ in model cells in a dose-dependent manner”; the “oxidative stress (H2DCFDA) and mitochondrial number (MitoTracker)” value was “could attenuate oxidative stress without changing mitochondrial number”; the “red/green fluorescence intensity ratio (JC-1, mitochondrial membrane potential)” value is recorded as “could reduce the occurrence of early apoptosis”. In addition, the “levels of pro-apoptotic proteins (Western blot)” value in assay [3] is “decreased levels of pro-apoptotic proteins”. The “proportion of TUNEL-positive neurons” value in the assay with APP/PS1 transgenic mice was “significantly decreased the proportion of TUNEL-positive neurons”.

Values taken from article PMC11982498 (Redox Biology, 2025).
